Values quoted from earlier work in patent US10399946B2, “Solid forms of an S-Nitrosoglutathione reductase inhibitor” (Alpine Immune Sciences, Inc., priority 2015, dated 2019).

Key:
[1] = described in WO2012/048181, US 62/061,557, 62/093,712, 62/138,792, 62/209,724, WO 2016/057811
[2] = target: S-nitrosoglutathione reductase (GSNOR) (Homo sapiens, UniProt P11766); conditions: variety of assays and therapeutic models
Chain of S-nitrosoglutathione reductase (GSNOR) (P11766 whole entry): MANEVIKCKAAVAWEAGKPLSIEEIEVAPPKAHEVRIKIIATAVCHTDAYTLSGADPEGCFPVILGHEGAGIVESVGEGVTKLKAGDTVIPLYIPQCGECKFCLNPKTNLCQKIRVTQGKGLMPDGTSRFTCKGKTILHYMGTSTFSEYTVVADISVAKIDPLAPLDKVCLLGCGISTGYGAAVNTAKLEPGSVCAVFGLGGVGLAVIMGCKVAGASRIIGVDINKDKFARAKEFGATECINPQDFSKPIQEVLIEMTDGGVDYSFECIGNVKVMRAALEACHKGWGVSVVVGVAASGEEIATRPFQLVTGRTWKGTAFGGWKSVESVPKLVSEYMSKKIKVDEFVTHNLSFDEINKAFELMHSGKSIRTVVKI

inhibition of S-nitrosoglutathione reductase (GSNOR) [2]: selective and reversible inhibition
SMILES: O=C(O)c1ccc(-c2ccc3cc(O)ccc3n2)c(Cl)c1 [Compound 1, 3-chloro-4-(6-hydroxyquinolin-2-yl)benzoic acid]
efficacy in asthma, COPD, cystic fibrosis, and IBD models [1]: demonstrates efficacy
